Reference: ChEMBL document CHEMBL1649565, “Besifloxacin, a novel fluoroquinolone, has broad-spectrum in vitro activity against aerobic and anaerobic bacteria” (Antimicrob Agents Chemother, 2009)
Active and inactive are the calls of the source. No cut-off for these calls is given here.

Assays:
Morganella morganii = assay: Antibacterial activity against Morganella morganii by CLSI M7-A7 method; type: functional
Streptococcus sp. = assay: Antibacterial activity against Lancefield Streptococcus sp. group F by CLSI M100-S18 method; type: functional
Haemophilus influenzae [1] = assay: Antibacterial activity against non-ciprofloxacin-susceptible Haemophilus influenzae assessed as percent susceptible isolates by CLSI M7-A7 method; type: functional
Staphylococcus warneri [2] = assay: Antibacterial activity against Staphylococcus warneri by CLSI M100-S18 method; type: functional
[3] = system: Staphylococcus saprophyticus; assay: Antibacterial activity against Staphylococcus saprophyticus by CLSI M100-S18 method; type: functional
Klebsiella pneumoniae [4] = assay: Antibacterial activity against Klebsiella pneumoniae by CLSI M7-A7 method; type: functional
Streptococcus agalactiae = assay: Antibacterial activity against Streptococcus agalactiae by CLSI M100-S18 method; type: functional
Moraxella catarrhalis = assay: Antibacterial activity against Moraxella catarrhalis by CLSI M7-A7 method; type: functional
Streptococcus pneumoniae [5] = assay: Antibacterial activity against levofloxacin susceptible Streptococcus pneumoniae assessed as percent susceptible isolates by CLSI M100-S18 method; type: functional
Pseudomonas aeruginosa [6] = assay: Antibacterial activity against ciprofloxacin-susceptible Pseudomonas aeruginosa by CLSI M7-A7 method; type: functional
[7] = system: Staphylococcus lugdunensis; assay: Antibacterial activity against Staphylococcus lugdunensis assessed as percent susceptible isolates by CLSI M100-S18 method; type: functional
Streptococcus sanguinis = assay: Antibacterial activity against Streptococcus sanguinis by CLSI M100-S18 method; type: functional
Klebsiella aerogenes = assay: Antibacterial activity against Enterobacter aerogenes assessed as percent susceptible isolates by CLSI M7-A7 method; type: functional
[8] = system: Staphylococcus saprophyticus; assay: Antibacterial activity against Staphylococcus saprophyticus assessed as percent susceptible isolates by CLSI M100-S18 method; type: functional
[9] = system: Staphylococcus haemolyticus; assay: Antibacterial activity against Staphylococcus haemolyticus by CLSI M100-S18 method; type: functional
[10] = system: Staphylococcus lugdunensis; assay: Antibacterial activity against Staphylococcus lugdunensis by CLSI M100-S18 method; type: functional
Streptococcus oralis = assay: Antibacterial activity against Streptococcus oralis by CLSI M100-S18 method; type: functional
[11] = system: Streptococcus intermedius; assay: Antibacterial activity against Streptococcus intermedius by CLSI M100-S18 method; type: functional
Staphylococcus aureus [12] = assay: Antibacterial activity against non-ciprofloxacin-susceptible and methicillin-susceptible Staphylococcus aureus assessed as percent susceptible isolates by CLSI M100-S18 method; type: functional
[13] = system: Staphylococcus epidermidis; assay: Antibacterial activity against ciprofloxacin-susceptible and methicillin-resistant Staphylococcus epidermidis by CLSI M100-S18 method; type: functional
Streptococcus pneumoniae [14] = assay: Antibacterial activity against non-levofloxacin susceptible Streptococcus pneumoniae assessed as percent susceptible isolates by CLSI M100-S18 method; type: functional
[15] = system: Stenotrophomonas maltophilia; assay: Antibacterial activity against levofloxacin-susceptible Stenotrophomonas maltophilia by CLSI M7-A7 method; type: functional
Proteus mirabilis = assay: Antibacterial activity against Proteus mirabilis by CLSI M7-A7 method; type: functional
Streptococcus pneumoniae [16] = assay: Antibacterial activity against non-levofloxacin susceptible Streptococcus pneumoniae by CLSI M100-S18 method; type: functional
Staphylococcus hominis = assay: Antibacterial activity against Staphylococcus hominis assessed as percent susceptible isolates by CLSI M100-S18 method; type: functional
Legionella pneumophila = assay: Antibacterial activity against Legionella pneumophila by CLSI M7-A7 method; type: functional
Streptococcus pyogenes = assay: Antibacterial activity against Streptococcus pyogenes by CLSI M100-S18 method; type: functional
Streptococcus pneumoniae [17] = assay: Antibacterial activity against levofloxacin-susceptible Streptococcus pneumoniae by CLSI M100-S18 method; type: functional
Enterococcus faecium = assay: Antibacterial activity against vancomycin- resistant Enterococcus faecium by CLSI M100-S18 method; type: functional
Serratia marcescens [18] = assay: Antibacterial activity against levofloxacin susceptible Serratia marcescens assessed as percent susceptible isolates by CLSI M7-A7 method; type: functional
Citrobacter freundii = assay: Antibacterial activity against Citrobacter freundii by CLSI M7-A7 method; type: functional
[19] = system: Staphylococcus epidermidis
Staphylococcus aureus [20] = assay: Antibacterial activity against ciprofloxacin-susceptible and methicillin-resistant Staphylococcus aureus by CLSI M100-S18 method; type: functional
[21] = Antibacterial activity against Lancefield Streptococcus sp. 'group G' by CLSI M100-S18 method; type: functional
[22] = system: Acinetobacter calcoaceticus; assay: Antibacterial activity against Acinetobacter calcoaceticus by CLSI M7-A7 method; type: functional
Staphylococcus warneri [23] = assay: Antibacterial activity against Staphylococcus warneri assessed as percent susceptible isolates by CLSI M100-S18 method; type: functional
Haemophilus influenzae [24] = assay: Antibacterial activity against ciprofloxacin-susceptible Haemophilus influenzae assessed as percent susceptible isolates by CLSI M7-A7 method; type: functional
[25] = system: Stenotrophomonas maltophilia; assay: Antibacterial activity against non-levofloxacin susceptible Stenotrophomonas maltophilia by CLSI M7-A7 method; type: functional
Proteus vulgaris = assay: Antibacterial activity against Proteus vulgaris by CLSI M7-A7 method; type: functional
Klebsiella pneumoniae [26] = assay: Antibacterial activity against Klebsiella pneumoniae assessed as percent susceptible isolates by CLSI M7-A7 method; type: functional
Acinetobacter lwoffii = assay: Antibacterial activity against Acinetobacter lwoffii by CLSI M7-A7 method; type: functional
Streptococcus anginosus = assay: Antibacterial activity against Streptococcus anginosus by CLSI M100-S18 method; type: functional
Serratia marcescens [27] = assay: Antibacterial activity against Serratia marcescens by CLSI M7-A7 method; type: functional
Citrobacter koseri = assay: Antibacterial activity against Citrobacter koseri by CLSI M7-A7 method; type: functional
Pseudomonas aeruginosa [28] = assay: Antibacterial activity against non-ciprofloxacin-susceptible Pseudomonas aeruginosa by CLSI M7-A7 method; type: functional
Enterobacter cloacae = assay: Antibacterial activity against Enterobacter cloacae by CLSI M7-A7 method; type: functional
[29] = system: Staphylococcus epidermidis; assay: Antibacterial activity against non-ciprofloxacin-susceptible and methicillin-susceptible Staphylococcus epidermidis assessed as percent susceptible isolates by CLSI M100-S18 method; type: functional

## C[C@H]1COc2c(N3CCN(C)CC3)c(F)cc3c(=O)c(C(=O)O)cn1c23.C[C@H]1COc2c(N3CCN(C)CC3)c(F)cc3c(=O)c(C(=O)O)cn1c23.O [LEVOFLOXACIN]
Morganella morganii
  MIC50: 0.06 µg/mL
  MIC90: 8 µg/mL
Streptococcus sp.
  MIC50: 0.5 µg/mL
  MIC90: 0.5 µg/mL
Haemophilus influenzae [1]
  Activity: 27.3%
Staphylococcus warneri [2]
  MIC50: 0.12 µg/mL
  MIC90: > 8 µg/mL
[3]
  MIC50: 0.25 µg/mL
  MIC90: 0.5 µg/mL
Klebsiella pneumoniae [4]
  MIC50: 0.06 µg/mL
  MIC90: 2 µg/mL
Streptococcus agalactiae
  MIC: 0.5 µg/mL
  MIC50: 0.5 µg/mL
  MIC90: 0.5 µg/mL
Moraxella catarrhalis
  MIC50: 0.015 µg/mL
  MIC90: 0.015 µg/mL
Streptococcus pneumoniae [5]
  Activity: 100%
Pseudomonas aeruginosa [6]
  MIC50: 0.5 µg/mL
  MIC90: 1 µg/mL
[7]
  Activity: 66.7%
Streptococcus sanguinis
  MIC50: 1 µg/mL
  MIC90: 4 µg/mL
Klebsiella aerogenes
  Activity: 80%
[8]
  Activity: 100%
[9]
  MIC50: 4 µg/mL
  MIC90: > 8 µg/mL
[10]
  MIC50: 0.25 µg/mL
  MIC90: > 8 µg/mL
Streptococcus oralis
  MIC50: 1 µg/mL
  MIC90: 4 µg/mL
[11]
  MIC50: 1 µg/mL
  MIC90: 4 µg/mL
Staphylococcus aureus [12]
  Activity: 0%
[13]
  MIC: 0.12 µg/mL
  MIC50: 0.12 µg/mL
Streptococcus pneumoniae [14]
  Activity: 0%
[15]
  MIC: 4 µg/mL
Proteus mirabilis
  MIC50: 0.03 µg/mL
  MIC90: 8 µg/mL
Streptococcus pneumoniae [16]
  MIC50: 16 µg/mL
  MIC90: 16 µg/mL
Staphylococcus hominis
  Activity: 30%
Legionella pneumophila
  MIC50: 0.03 µg/mL
  MIC90: 0.03 µg/mL
Streptococcus pyogenes
  MIC50: 0.5 µg/mL
  MIC90: 0.5 µg/mL
Streptococcus pneumoniae [17]
  MIC50: 0.5 µg/mL
  MIC90: 0.5 µg/mL
Enterococcus faecium
  MIC50: 32 µg/mL
  MIC90: 128 µg/mL
Serratia marcescens [18]
  Activity: 100%
Citrobacter freundii
  MIC50: 0.06 µg/mL
  MIC90: 2 µg/mL
[19]
  MIC90: inactive
Staphylococcus aureus [20]
  MIC50: 0.12 µg/mL
  MIC90: 0.25 µg/mL
[21]
  MIC50: 0.5 µg/mL
  MIC90: 0.5 µg/mL
[22]
  MIC50: 0.5 µg/mL
  MIC90: 8 µg/mL
Staphylococcus warneri [23]
  Activity: 74%
Haemophilus influenzae [24]
  Activity: 100%
[25]
  MIC: 0.12 µg/mL
Proteus vulgaris
  MIC50: 0.03 µg/mL
  MIC90: 0.06 µg/mL
Klebsiella pneumoniae [26]
  Activity: 91%
Acinetobacter lwoffii
  MIC50: 0.12 µg/mL
  MIC90: 4 µg/mL
Streptococcus anginosus
  MIC50: 1 µg/mL
  MIC90: 1 µg/mL
Serratia marcescens [27]
  MIC50: 0.12 µg/mL
  MIC90: 0.5 µg/mL
Citrobacter koseri
  MIC50: 0.03 µg/mL
  MIC90: 0.12 µg/mL
Pseudomonas aeruginosa [28]
  MIC50: 16 µg/mL
  MIC90: 64 µg/mL
Enterobacter cloacae
  MIC50: 0.03 µg/mL
  MIC90: 0.25 µg/mL
[29]
  Activity: 0%
